The target in data set [1] is T1, Receptor-type tyrosine-protein kinase FLT3 (Homo sapiens, UniProt P36888).
T1 sequence (P36888 whole entry): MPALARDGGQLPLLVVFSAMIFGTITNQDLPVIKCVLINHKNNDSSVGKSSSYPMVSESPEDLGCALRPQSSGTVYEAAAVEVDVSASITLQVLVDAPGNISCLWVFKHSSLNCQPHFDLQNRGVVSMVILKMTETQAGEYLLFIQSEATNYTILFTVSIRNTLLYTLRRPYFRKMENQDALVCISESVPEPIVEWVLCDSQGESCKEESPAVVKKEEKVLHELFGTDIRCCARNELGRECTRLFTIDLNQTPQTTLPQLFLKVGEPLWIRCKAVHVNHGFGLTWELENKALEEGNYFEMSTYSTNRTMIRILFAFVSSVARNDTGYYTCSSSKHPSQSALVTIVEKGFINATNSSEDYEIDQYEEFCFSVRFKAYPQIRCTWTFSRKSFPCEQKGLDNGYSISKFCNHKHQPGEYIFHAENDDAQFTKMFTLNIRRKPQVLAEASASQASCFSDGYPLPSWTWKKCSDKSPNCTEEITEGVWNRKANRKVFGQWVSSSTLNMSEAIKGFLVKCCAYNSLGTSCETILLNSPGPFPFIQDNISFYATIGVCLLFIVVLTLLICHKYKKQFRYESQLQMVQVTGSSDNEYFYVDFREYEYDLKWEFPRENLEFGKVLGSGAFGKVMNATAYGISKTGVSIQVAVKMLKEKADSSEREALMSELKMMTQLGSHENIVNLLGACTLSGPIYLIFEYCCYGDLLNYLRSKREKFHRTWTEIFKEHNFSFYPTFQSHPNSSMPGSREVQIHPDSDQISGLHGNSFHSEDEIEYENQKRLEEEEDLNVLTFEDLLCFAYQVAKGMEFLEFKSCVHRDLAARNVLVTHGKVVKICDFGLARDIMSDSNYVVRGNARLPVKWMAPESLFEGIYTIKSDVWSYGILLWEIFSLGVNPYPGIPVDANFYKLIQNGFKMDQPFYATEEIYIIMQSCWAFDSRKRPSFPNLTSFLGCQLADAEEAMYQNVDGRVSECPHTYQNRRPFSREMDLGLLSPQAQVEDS
Briefly: Inhibition of human recombinant FLT3 by radiometric assay.

For data set [2], the target named is Mast/stem cell growth factor receptor Kit (Homo sapiens, UniProt P10721). Briefly: Inhibition of c-KIT-mediated ERK 1/2 phosphorylation in human TF1 cells at 4 to 12 nM after 1 hr by immunoblot analysis. It counts as cell-based, TF-1.
Data set [3] relates to Mus musculus. Briefly: Plasma concentration at steady state in BALB/c mouse xenografted with BA/F3 cells expressing FLT3-ITD mutant at 0.05 mg/kg, po qd. Also noted: dose 0.05 mg/kg, route oral. The conditions noted are these: in vivo. It counts as ADME, organism-based, BaF3.
The test system of data set [4] is BaF3. Description: Antitumor activity against mouse BA/F3 cells expressing FLT3-ITD mutant xenografted in BALB/c mouse myeloproliferative model assessed as increase in host survival days administered by oral gavage qd relative to control. It counts as functional.
Data set [5] deals with TF-1. Description: cells. The conditions noted are these: Homo sapiens, TF-1, 72 h.
Description: Cytotoxicity against human TF1 cells expressing wild type c-KIT assessed as cell viability after 72 hrs by resazurin dye based fluorescence assay
Data set [6] relates to MV4-11. Description: Induction of apoptosis in human MV4-11 cells at 100 nM assessed as prenecrotic cells after 48 hrs by annexin V and propidium iodide staining method (reference value: 91.8 %). Type of data set: functional.
The target in data set [7] is Proto-oncogene tyrosine-protein kinase Src (Homo sapiens, UniProt P12931). Briefly: Inhibition of Src.
The subject of data set [8] is MV4-11. Briefly: Induction of apoptosis in human MV4-11 cells at 100 nM assessed as late apoptotic cells after 24 hrs by annexin V and propidium iodide staining method (reference value: 5.1 %). Type of data set: functional.
Data set [9] has as its system MV4-11. Description: Induction of apoptosis in human MV4-11 cells at 100 nM assessed as apoptotic cells after 48 hrs by annexin V and propidium iodide staining method (reference value: 2.1 %). Type of data set: functional.
Data set [10] concerns BaF3. Description: Antitumor activity against mouse BA/F3 cells expressing FLT3-ITD mutant xenografted in BALB/c mouse myeloproliferative model assessed as increase in host survival days at 0.25 mg/kg, po qd relative to control (reference value: 20 days). It counts as functional, organism-based. The arrangement: dose 0.25 mg/kg.
Data set [11] has as its system TF-1. Description: cells. As to conditions: Homo sapiens, TF-1, 72 h. This is another data set of the same source.
Description: Cytotoxicity against human TF1 cells expressing PDGFR-beta assessed as cell viability after 72 hrs by resazurin dye based fluorescence assay
The subject of data set [12] is MV4-11. Description: Induction of apoptosis in human MV4-11 cells at 100 nM assessed as late apoptotic cells after 48 hrs by annexin V and propidium iodide staining method (reference value: 3.4 %). Type of data set: functional.
Data set [13] has as its system Mus musculus. Briefly: Plasma concentration at steady state in BALB/c mouse xenografted with BA/F3 cells expressing FLT3-ITD mutant at 0.25 mg/kg, po qd. The conditions noted are these: in vivo. Type of data set: ADME, organism-based, BaF3. Also noted: dose 0.25 mg/kg, route oral.
Data set [14] is described as follows: Half life in BALB/c mouse. It counts as ADME, organism-based. The conditions noted are these: in vivo.
A short description of data set [15]: Oral bioavailability in BALB/c mouse. Type of data set: ADME, organism-based. As to conditions: in vivo.
In data set [16] the test system is MV4-11. Description: Induction of apoptosis in human MV4-11 cells at 100 nM assessed as prenecrotic cells after 24 hrs by annexin V and propidium iodide staining method (reference value: 90.3 %). Type of data set: functional.
Data set [17] relates to Mus musculus. Briefly: Plasma concentration at steady state in BALB/c mouse xenografted with BA/F3 cells expressing FLT3-ITD mutant at 1 mg/kg, po qd. Type of data set: ADME, organism-based, BaF3. Also noted: dose 1 mg/kg, route oral. The conditions noted are these: in vivo.
In data set [18] the test system is BaF3. Briefly: Antitumor activity against mouse BA/F3 cells expressing FLT3-ITD mutant xenografted in BALB/c mouse myeloproliferative model assessed as increase in host survival days at 1 mg/kg, po qd relative to control (reference value: 20 days). Type of data set: functional, organism-based. The arrangement: dose 1 mg/kg.
The subject of data set [19] is Receptor-type tyrosine-protein kinase FLT3 (Homo sapiens), P36888 [UNDEFINED MUTATION]. Description: (§1) Inhibition of FLT3 ITD mutant autophosphorylation in human MV4-11 cells after 1 hr by immunoblot analysis. Type of data set: cell-based. (In general: Immunoblotting shows a protein as a band on a membrane.)
The target in data set [20] is Receptor-type tyrosine-protein kinase FLT3 (Homo sapiens, UniProt P36888, ITD). The data set is described as §1. It counts as cell-based.

Molecules are shown by their SMILES. pIC50, pKi: −log10 of the molar value.

For orientation: pKi means the Ki on a negative log10 scale, so that one unit is a factor of ten. For orientation: pIC50 means the negative decadic logarithm of the IC50, by convention in mol/L. A lower pIC50 goes with a large IC50. As a reminder, the half-life is the time needed for the level to fall by half in the phase considered. Read a low half-life as fast loss. The term bioavailability denotes the share of a dose that reaches the circulation, judged against a reference dose that is usually intravenous.

Mast/stem cell growth factor receptor Kit, sequence (P10721 whole entry): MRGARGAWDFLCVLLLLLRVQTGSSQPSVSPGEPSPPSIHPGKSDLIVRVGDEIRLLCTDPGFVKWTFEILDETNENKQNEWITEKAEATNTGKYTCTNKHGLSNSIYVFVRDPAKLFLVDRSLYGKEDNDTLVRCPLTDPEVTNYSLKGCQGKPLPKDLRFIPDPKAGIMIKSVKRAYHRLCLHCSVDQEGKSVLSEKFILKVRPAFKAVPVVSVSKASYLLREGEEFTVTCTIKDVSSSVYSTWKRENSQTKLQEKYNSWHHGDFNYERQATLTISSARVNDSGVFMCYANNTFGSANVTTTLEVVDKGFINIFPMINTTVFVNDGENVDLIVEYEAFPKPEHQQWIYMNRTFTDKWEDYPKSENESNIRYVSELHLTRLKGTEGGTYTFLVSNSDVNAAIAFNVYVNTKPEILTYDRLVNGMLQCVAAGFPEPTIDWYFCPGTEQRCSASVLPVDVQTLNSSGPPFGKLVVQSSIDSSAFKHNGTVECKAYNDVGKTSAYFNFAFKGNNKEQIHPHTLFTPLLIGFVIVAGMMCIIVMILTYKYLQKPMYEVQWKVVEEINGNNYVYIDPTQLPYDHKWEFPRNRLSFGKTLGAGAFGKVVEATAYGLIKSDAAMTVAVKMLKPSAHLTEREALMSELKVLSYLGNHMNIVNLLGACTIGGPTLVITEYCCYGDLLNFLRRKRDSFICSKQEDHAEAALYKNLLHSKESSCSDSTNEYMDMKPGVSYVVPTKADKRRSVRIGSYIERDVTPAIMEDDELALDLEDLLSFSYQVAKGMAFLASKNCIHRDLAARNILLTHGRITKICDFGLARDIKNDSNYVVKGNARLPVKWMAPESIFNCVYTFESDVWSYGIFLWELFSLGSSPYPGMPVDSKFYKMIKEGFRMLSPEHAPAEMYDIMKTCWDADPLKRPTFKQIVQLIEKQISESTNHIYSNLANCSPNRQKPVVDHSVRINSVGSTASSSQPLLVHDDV
Proto-oncogene tyrosine-protein kinase Src, sequence (P12931 2-536 limits assumed): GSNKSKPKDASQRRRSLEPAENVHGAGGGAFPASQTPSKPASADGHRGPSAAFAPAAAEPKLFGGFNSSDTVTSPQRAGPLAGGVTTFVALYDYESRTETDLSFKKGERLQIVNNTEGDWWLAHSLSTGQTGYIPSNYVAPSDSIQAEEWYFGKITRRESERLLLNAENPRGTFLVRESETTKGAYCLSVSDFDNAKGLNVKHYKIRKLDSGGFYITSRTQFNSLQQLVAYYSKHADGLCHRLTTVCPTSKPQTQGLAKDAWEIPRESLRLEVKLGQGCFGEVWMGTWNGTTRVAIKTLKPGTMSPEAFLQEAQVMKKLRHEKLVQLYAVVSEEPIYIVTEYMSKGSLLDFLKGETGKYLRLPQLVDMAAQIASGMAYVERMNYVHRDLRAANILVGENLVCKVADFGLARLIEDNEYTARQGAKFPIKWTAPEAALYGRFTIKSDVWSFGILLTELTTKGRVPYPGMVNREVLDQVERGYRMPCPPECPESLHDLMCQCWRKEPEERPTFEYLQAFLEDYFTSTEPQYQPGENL

`Nc1nc(Nc2ccc([C@H]3CC[C@H](N4CCOCC4)CC3)cc2)nn1-c1ccccn1`: the values for the pKi in [1] and in [7] were 9.77 and 6.11, respectively. Further, the pIC50 was 8.40 in data set [2], 8.80 in the data set with TF-1 [5], 6.48 in the data set on TF-1 [11] and 9.40 in [20]. In addition, the Cpss with Mus musculus [3] was 4 ng/mL; with Mus musculus [13], 22 ng/mL; with Mus musculus [17] it was 91 ng/mL. In addition, the Activity entry with BaF3 [4] is “Dose-dependent effect”; with MV4-11 [6], 28.5%; in the data set on MV4-11 [8], 32.5%; with MV4-11 [9] it was 26.3%; with MV4-11 [12] it was 42.8%; with MV4-11 [16] it was 54.5%. The MSD in the data set on BaF3 [10] was found to be 25 days; with BaF3 [18], 34 days. In data set [14], the half-life is 15 h. In [15], the bioavailability amounted to 100%. Besides, the inhibition entry in data set [19] is “Dose-dependent effect”.
